Source: patent US9932637B2, “Genetic polymorphisms associated with cardiovascular disorders and drug response, methods of detection and uses thereof” (CELERA CORPORATION, priority 2003, dated 2018)

System: patients with prior myocardial infarction (CARE study)
Test: CARE: association of SNPs with pravastatin treatment in cardiovascular events prevention (logistic regression, odds ratio pravastatin vs placebo by genotype; Table 8)
Type: in vivo, human
Conditions: for Non-fatal MI (def & prob), n/total (%) / Fatal CHD/Definite Non-fatal MI, n/total (%) / Coronary Artery Bypass or Revascularization, n/total (%) / Hosp. for Unstable Angina, n/total (%) / Total Coronary Heart Disease Events, n/total (%) / Fatal/Non-fatal Atherosclerotic CV Disease, n/total (%) / Hosp. for Cardiovascular Disease, n/total (%) / Total Cardiovascular Disease Events, n/total (%) / Prava vs. Placebo Odds Ratio, 0 Rare Alleles / Prava vs. Placebo Odds Ratio, 1 Rare Alleles / Cardiovascular Mortality, n/total (%) / Fatal Atherosclerotic Cardiovascular Disease, n/total (%) / Fatal/Non-fatal MI (def & prob), n/total (%): All Patients; for Non-fatal MI (def & prob), n/total (%) / Fatal CHD/Definite Non-fatal MI, n/total (%) / Coronary Artery Bypass or Revascularization, n/total (%) / Hosp. for Unstable Angina, n/total (%) / Total Coronary Heart Disease Events, n/total (%) / Fatal/Non-fatal Atherosclerotic CV Disease, n/total (%) / Hosp. for Cardiovascular Disease, n/total (%) / Total Cardiovascular Disease Events, n/total (%) / Cardiovascular Mortality, n/total (%) / Fatal Atherosclerotic Cardiovascular Disease, n/total (%) / Fatal/Non-fatal MI (def & prob), n/total (%): Prava
From the text: In order to identify genetic markers associated with acute coronary events (e.g. MI, stroke, unstable angina, congestive heart failure, etc.) or response to statin treatment for the prevention of coronary events, samples from the Cholesterol and Recurrent Events (CARE) study (a randomized multicentral double-blinded trial on secondary prevention of acute coronary events with pravastatin) (Sacks et al., 1991, Am. J. Cardiol. 68: 1436-1446) were genotyped. A well-documented myocardial infarction (MI) was one of the enrollment criteria for entry into the CARE study. Patients were enrolled in the CARE trial from 80 participating study centers. […] Patients were randomized to receive either 40 mg of pravastatin once daily or a matching placebo. The primary endpoint of the trial was death from coronary heart disease and the median duration of follow-up was 5.0 years (range, 4.0 to 6.2 years). […] Secondary endpoints of other related cardiovascular or metabolic disease events, and changes in clinical variables were also recorded in pravastatin-treated and placebo groups. All individuals included in the study had signed a written informed consent form and the study protocol was approved by the respective Institutional Review Boards (IRBs).
For genotyping SNPs in CARE patient samples, DNA was extracted from blood samples using conventional DNA extraction methods such as the QIA-amp kit from Qiagen. Genotypes were obtained on an ABI PRISM® 7900HT Sequence Detection PCR system (Applied Biosystems, Foster City, Calif.) by kinetic allele-specific PCR, similar to the method described by Germer et al. (Germer S., Holland M. J., Higuchi R. 2000, Genome Res. 10: 258-266).
Statistical analysis for association of SNPs with pravastatin treatment in cardiovascular events prevention (Table 8) was carried out using an overall logistic regression model that included an intercept, a parameter for the effect of a genotype containing two rare alleles versus a genotype containing no rare alleles, a parameter for the effect of a genotype containing one rare allele versus a genotype containing no rare alleles, a parameter for the effect of use of pravastatin versus the use of placebo, and parameters for the interaction effects between SNP genotypes and pravastatin use. The test of the overall model is a chi-square test with two degrees of freedom for analyses containing all three genotypes, and one degree of freedom for analyses containing two genotypes.
Effect sizes were estimated through odds ratios (pravastatin group versus placebo) for carriers of each genotype (groups of 0, 1, and 2 minor allele carriers). The effect was considered to be significant if p-value for testing whether any of the interactions between SNP genotypes and pravastatin use were <0.05. […] Odds ratios less than one indicate that the specific SNP allele has a protective effect and odds ratios greater than one indicate that the specific SNP allele has an adverse effect.

[1] = CR1 hCV25598594, 2 Rare Alleles, n/total 0/0
[2] = CR1 hCV25598594, Coronary Artery Bypass or Revascularization
[3] = CR1 hCV25598594, Fatal CHD/Definite Non-fatal MI
[4] = CR1 hCV25598594, Fatal/Non-fatal Atherosclerotic CV Disease
[5] = CR1 hCV25598594, Hosp. for Cardiovascular Disease
[6] = CR1 hCV25598594, Hosp. for Unstable Angina
[7] = CR1 hCV25598594, Non-fatal MI (def & prob)
[8] = CR1 hCV25598594, Total Cardiovascular Disease Events
[9] = CR1 hCV25598594, Total Coronary Heart Disease Events
[10] = CXCL16 hCV8718197, 0 Rare Alleles, n/total 12/468

CC[C@H](C)C(=O)O[C@H]1C[C@H](O)C=C2C=C[C@H](C)[C@H](CC[C@@H](O)C[C@@H](O)CC(=O)O)[C@H]21 [pravastatin]
Nonfatal MI (def & prob), n/total (%) (COL11A1 hCV8400671, All Patients, 2 Rare Alleles, Prava arm): (4.1%)
Non-fatal MI (def & prob), n/total (%) (CR1 hCV25598594, 0 Rare Alleles, n/total 132/1445): (9.1%)
Fatal CHD/Definite Non-fatal MI, n/total (%) (CR1 hCV25598594, 0 Rare Alleles, n/total 139/1445): (9.6%)
Coronary Artery Bypass or Revascularization, n/total (%) (CR1 hCV25598594, 0 Rare Alleles, n/total 212/1445): (14.7%)
Hosp. for Unstable Angina, n/total (%) (CR1 hCV25598594, 0 Rare Alleles, n/total 223/1445): (15.4%)
Total Coronary Heart Disease Events, n/total (%) (CR1 hCV25598594, 0 Rare Alleles, n/total 431/1445): (29.8%)
Fatal/Non-fatal Atherosclerotic CV Disease, n/total (%) (CR1 hCV25598594, 0 Rare Alleles, n/total 491/1445): (34.0%)
Hosp. for Cardiovascular Disease, n/total (%) (CR1 hCV25598594, 0 Rare Alleles, n/total 586/1445): (40.6%)
Total Cardiovascular Disease Events, n/total (%) (CR1 hCV25598594, 0 Rare Alleles, n/total 603/1445): (41.7%)
Fatal CHD/Definite Non-fatal MI, n/total (%) (CR1 hCV25598594, 1 Rare Allele, n/total 1/72): (1.4%)
Non-fatal MI (def & prob), n/total (%) (CR1 hCV25598594, 1 Rare Allele, n/total 2/72): (2.8%)
Coronary Artery Bypass or Revascularization, n/total (%) (CR1 hCV25598594, 1 Rare Allele, n/total 7/72): (9.7%)
Hosp. for Unstable Angina, n/total (%) (CR1 hCV25598594, 1 Rare Allele, n/total 8/72): (11.1%)
Total Coronary Heart Disease Events, n/total (%) (CR1 hCV25598594, 1 Rare Allele, n/total 11/72): (15.3%)
Fatal/Non-fatal Atherosclerotic CV Disease, n/total (%) (CR1 hCV25598594, 1 Rare Allele, n/total 15/72): (20.8%)
Hosp. for Cardiovascular Disease, n/total (%) (CR1 hCV25598594, 1 Rare Allele, n/total 23/72): (31.9%)
Total Cardiovascular Disease Events, n/total (%) (CR1 hCV25598594, 1 Rare Allele, n/total 24/72): (33.3%)
Coronary Artery Bypass or Revascularization, n/total (%) [1]: (0.0%)
Fatal CHD/Definite Non-fatal MI, n/total (%) [1]: (0.0%)
Fatal/Non-fatal Atherosclerotic CV Disease, n/total (%) [1]: (0.0%)
Hosp. for Cardiovascular Disease, n/total (%) [1]: (0.0%)
Hosp. for Unstable Angina, n/total (%) [1]: (0.0%)
Non-fatal MI (def & prob), n/total (%) [1]: (0.0%)
Total Cardiovascular Disease Events, n/total (%) [1]: (0.0%)
Total Coronary Heart Disease Events, n/total (%) [1]: (0.0%)
Prava vs. Placebo Odds Ratio, 0 Rare Alleles [2]: 0.74
Prava vs. Placebo Odds Ratio, 1 Rare Alleles [2]: 0.23
Prava vs. Placebo Odds Ratio, 0 Rare Alleles [3]: 0.76
Prava vs. Placebo Odds Ratio, 1 Rare Alleles [3]: 0.06
Prava vs. Placebo Odds Ratio, 0 Rare Alleles [4]: 0.81
Prava vs. Placebo Odds Ratio, 1 Rare Alleles [4]: 0.25
Prava vs. Placebo Odds Ratio, 0 Rare Alleles [5]: 0.79
Prava vs. Placebo Odds Ratio, 1 Rare Alleles [5]: 0.33
Prava vs. Placebo Odds Ratio, 0 Rare Alleles [6]: 0.87
Prava vs. Placebo Odds Ratio, 1 Rare Alleles [6]: 0.31
Prava vs. Placebo Odds Ratio, 0 Rare Alleles [7]: 0.74
Prava vs. Placebo Odds Ratio, 1 Rare Alleles [7]: 0.12
Prava vs. Placebo Odds Ratio, 0 Rare Alleles [8]: 0.78
Prava vs. Placebo Odds Ratio, 1 Rare Alleles [8]: 0.33
Prava vs. Placebo Odds Ratio, 0 Rare Alleles [9]: 0.81
Prava vs. Placebo Odds Ratio, 1 Rare Alleles [9]: 0.22
Cardiovascular Mortality, n/total (%) [10]: (2.6%)
Fatal Atherosclerotic Cardiovascular Disease, n/total (%) [10]: (2.6%)
Fatal/Non-fatal MI (def & prob), n/total (%) (CXCL16 hCV8718197, 0 Rare Alleles, n/total 33/468): (7.1%)
Fatal CHD/Definite Non-fatal MI, n/total (%) (CXCL16 hCV8718197, 0 Rare Alleles, n/total 36/468): (7.7%)
Coronary Artery Bypass or Revascularization, n/total (%) (CXCL16 hCV8718197, 0 Rare Alleles, n/total 56/468): (12.0%)
Total Coronary Heart Disease Events, n/total (%) (CXCL16 hCV8718197, 0 Rare Alleles, n/total 125/468): (26.7%)
Hosp. for Cardiovascular Disease, n/total (%) (CXCL16 hCV8718197, 0 Rare Alleles, n/total 177/468): (37.8%)
Total Cardiovascular Disease Events, n/total (%) (CXCL16 hCV8718197, 0 Rare Alleles, n/total 180/468): (38.5%)
Fatal Atherosclerotic Cardiovascular Disease, n/total (%) (CXCL16 hCV8718197, 1 Rare Allele, n/total 23/742): (3.1%)
Cardiovascular Mortality, n/total (%) (CXCL16 hCV8718197, 1 Rare Allele, n/total 24/742): (3.2%)
Fatal CHD/Definite Non-fatal MI, n/total (%) (CXCL16 hCV8718197, 1 Rare Allele, n/total 68/742): (9.2%)
Fatal/Non-fatal MI (def & prob), n/total (%) (CXCL16 hCV8718197, 1 Rare Allele, n/total 75/742): (10.1%)
Coronary Artery Bypass or Revascularization, n/total (%) (CXCL16 hCV8718197, 1 Rare Allele, n/total 119/742): (16.0%)
Total Coronary Heart Disease Events, n/total (%) (CXCL16 hCV8718197, 1 Rare Allele, n/total 220/742): (29.6%)
Hosp. for Cardiovascular Disease, n/total (%) (CXCL16 hCV8718197, 1 Rare Allele, n/total 305/742): (41.1%)
Total Cardiovascular Disease Events, n/total (%) (CXCL16 hCV8718197, 1 Rare Allele, n/total 314/742): (42.3%)
Cardiovascular Mortality, n/total (%) (CXCL16 hCV8718197, 2 Rare Alleles, n/total 19/292): (6.5%)
